Measured values as given in patent US4489079A, “Pharmaceutical compositions having a peripheral antagonistic action with respect to opiates” (priority 1981, dated 1984).

How the values were obtained:
[1] = tested on: analgesic effect of morphine; conditions: for ID50 a / ID50 c: ratio of analgesic-effect ID50 a to constipating-effect ID50 c; for ID50 a / ID50 c / Antagonism with respect to the analgesic effect ID50 a: (°) inactive up to the maximum injectable dose; for Antagonism with respect to the analgesic effect ID50 a: subcutaneous antagonist, 5 min before 12 mg/kg s.c. morphine, female mice, limits in parentheses, where given, on next line; for central effects / central activity (in words): conclusion from Table I
[2] = tested on: constipating effect of morphine; assay: antagonism to the constipating effect of morphine (charcoal meal test, after A. F. Green, modified); conditions: for Antagonism with respect to the constipating effect ID50 c: subcutaneous antagonist, 5 min before 12 mg/kg s.c. morphine, female mice, extrapolated from least squares line log dose-response, limits in parentheses printed on next line; for ED50: Mus musculus, sc, read-out: Antagonism with respect to the constipating effect ID50 c
[3] = tested on: analgesic effect of morphine; assay: animal or person; conditions: Mus musculus, sc, read-out: Antagonism with respect to the analgesic effect ID50 a
[4] = morphine control group, 12 mg/kg subcutaneous

| Structure (SMILES) | ID50 a / ID50 c [1] | Antagonism with respect to the analgesic effect ID50 a [1] [mg/kg] | Antagonism with respect to the constipating effect ID50 c [2] [mg/kg] | central effects / central activity (in words) [1] | ID50 a relative to ID50 c (in words) ([1]; mouse, in vivo) | ED50 [3] [mg/kg] | ED50 [2] [mg/kg] | animals showing the increase of the threshold of sensitivity [1, 4] [%] | average increase of the threshold of sensitivity [1, 4] [%] |
| --- | --- | --- | --- | --- | --- | --- | --- | --- | --- |
| C=CC[N+]1(CC=C)CC[C@]23CCCC[C@H]2[C@H]1Cc1ccc(O)cc13 [levallorphan iodoallylate, iodoallylate of levallorphan] | > 3.61 | > 60 | 16.68 | – | – | – | – | – | – |
| C=CC[N+]1(CC=C)CC[C@]23CCCC[C@H]2[C@H]1Cc1ccc(O)cc13 [levallorphan bromoallylate, bromoallylate of levallorphan] | > 5.11 | > 80 | – | – | – | – | – | – | – |
| C=CCN1CC[C@]23c4c5ccc(O)c4O[C@H]2C(=O)CC[C@@]3(O)[C@H]1C5 [naloxone, N-allylnoroxymorphone] | 0.11 | – | – | very active | much more active as antagonist of the analgesic effect than antagonist of the constipating effect | 0.083 | 0.75 | – | – |
| C=CC[N+]1(C)CC[C@]23c4c5ccc(O)c4O[C@H]2C(=O)CC[C@@]3(O)[C@H]1C5 (some centres unmarked) [naloxone bromomethylate] | 0.47 | – | – | have a certain central activity | – | 5.12 | 10.8 | – | – |
| C=CC[N+]1(C)CC[C@]23c4c5ccc(O)c4O[C@H]2C(=O)CC[C@@]3(O)[C@H]1C5.COS(=O)(=O)[O-] (some centres unmarked) [naloxone sulfomethylate] | 1.68 | 5.039 | 2.99 | have a certain central activity | – | – | – | – | – |
| CN1CC[C@]23c4c5ccc(O)c4O[C@H]2[C@@H](O)C=C[C@H]3[C@H]1C5 [morphine] | – | – | – | – | – | – | – | 100 | 100 |
